Values of other authors in patent publication US20210008095A1, “METHODS FOR TREATING MUSCULAR DYSTROPHY” (Sarepta Therapeutics, Inc., priority 2015, published 2021).

Key:
patient cells = conditions: cited from earlier work
mouse model of DMD = conditions: cited from earlier work

O=C1CN(/N=C/c2ccc(-c3ccc([N+](=O)[O-])cc3)o2)C(O)=N1 [dantrolene]
effect on antisense-mediated exon skipping (patient cells): enhance antisense-mediated exon skipping | effect on antisense-mediated exon skipping (mouse model of DMD): enhance antisense-mediated exon skipping
